Laboratory results taken from patent US12344610B2, “APOL1 inhibitors and methods of use” (Maze Therapeutics, Inc., priority 2022, dated 2025).

Tests used:
[1] = system: HEK293 cells overexpressing APOL1 G2; experiment: APOL1 G2 HEK293 cell rescue assay (reversal of cell death caused by overexpression of APOL1); type: cell-based; conditions: geometric mean of at least 2 assay runs, † = single assay run
Outline: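 EC50 is the half-maximal effective concentration for reversing cell death driven by APOL1 G2 overexpression in HEK293 cells. Reported as geometric mean of at least 2 runs on separate days, each run averaging duplicate wells per plate; some values from a single run.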

APOL1 G2 = target: T1, APOL1 G2 (Homo sapiens, UniProt O14791, DEL388-389); experiment: APOL1-mediated calcium transport (calcium influx) assay, HEK T-REx/GCaMP6f/APOL1 G2 K6.3 cells, FLIPR TETRA; type: cell-based; conditions: prevention of calcium influx; geometric mean of at least 2 assay runs; † = average of a technical replicate from a single assay run
T1 construct: expressed in transfected cells; host or cells: HEK293 T-REx clonal line stably expressing GCaMP6f (HEK T-REx/GCaMP6f/APOL1 G2 K6.3), doxycycline induced
T1 sequence (O14791 with tags, fused parts or gaps DEL388-389): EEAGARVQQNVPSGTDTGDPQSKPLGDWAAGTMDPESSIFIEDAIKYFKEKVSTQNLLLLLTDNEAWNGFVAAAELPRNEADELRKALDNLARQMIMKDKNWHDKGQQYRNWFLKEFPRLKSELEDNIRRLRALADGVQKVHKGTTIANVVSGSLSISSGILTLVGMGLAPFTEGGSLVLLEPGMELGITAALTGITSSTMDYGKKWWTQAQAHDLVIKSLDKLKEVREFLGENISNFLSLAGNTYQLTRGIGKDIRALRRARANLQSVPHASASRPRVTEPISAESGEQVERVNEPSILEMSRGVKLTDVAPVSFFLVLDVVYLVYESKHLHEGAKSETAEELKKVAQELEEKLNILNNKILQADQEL
Outline: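 A HEK293 T-REx clone stably expressing GCaMP6f had APOL1 G2 induced with doxycycline (20 ng/mL solution added) for 6 h. Cells were then washed into Ca2+-free Tyrode's buffer (pH 7.4) and preincubated with compounds (duplicate 8-point) for 10 min at room temperature. Ca2+ injection to 5 mM final produced FLIPR GCaMP fluorescence, giving AC50 for influx inhibition (geometric mean, ≥2 runs).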

[2] = Homo sapiens, HEK293, HEK293 overexpressing APOL1 G2

## O=C1Nc2ccc(Cl)cc2C12CCN(CCOc1ccc3c(c1)CCNS3(=O)=O)CC2 [Compound 167, 6-(2-{5-chloro-2-oxo-1,2-dihydrospiro[indole-3,4′-piperidin]-1′-yl}ethoxy)-3,4-dihydro-2H-1λ^6,2-benzothiazine-1,1-dione]
[1]; [2]
  EC50: 42.7 nM
APOL1 G2
  AC50: 467 nM

## CS(=O)(=O)c1ccc(OCCN2CCC3(CC2)C(=O)Nc2ccc(Cl)cc23)cc1OC(F)F [Compound 163, 5-chloro-1′-{2-[3-(difluoromethoxy)-4-methanesulfonylphenoxy]ethyl}-1,2-dihydrospiro[indole-3,4′-piperidin]-2-one]
[1]; [2]
  EC50: 24.6 nM
APOL1 G2
  AC50: 528 nM

## CN1c2ccc(OCCN3CCC4(CC3)C(=O)Nc3ccc(Cl)cc34)cc2CCS1(=O)=O [Compound 103, 6-(2-{5-chloro-2-oxo-1,2-dihydrospiro[indole-3,4′-piperidin]-1′-yl}ethoxy)-1-methyl-3,4-dihydro-1H-2λ^6,1-benzothiazine-2,2-dione]
[1]; [2]
  EC50: 49.4 nM
APOL1 G2
  AC50: 591 nM

## CN=S(C)(=O)c1ccc(OCCN2CCC3(CC2)C(=O)Nc2ccc(Cl)cc23)cc1 (single isomer, unassigned) [Compound 149, (R) or (S)-5-chloro-1′-(2-{4-[methyl(methylimino)oxo-λ^6-sulfanyl]phenoxy}ethyl)-1,2-dihydrospiro[indole-3,4′-piperidin]-2-one]
[1]; HEK293 overexpressing APOL1 G2
  EC50: 101 nM
APOL1 G2
  AC50: 971 nM

## CN(c1c(F)cc(OCCN2CCC3(CC2)C(=O)Nc2ccc(C#N)cc23)cc1F)S(C)(=O)=O [Compound 128, N-[4-(2-{5-cyano-2-oxo-1,2-dihydrospiro[indole-3,4′-piperidin]-1′-yl}ethoxy)-2,6-difluorophenyl]-N-methylmethanesulfonamide]
[1]; [2]
  EC50: 42.7 nM
APOL1 G2
  AC50: 537 nM

## Cc1cc(OCCN2CCC3(CC2)C(=O)Nc2ccc(Cl)cc23)ccc1S(C)(=O)=O [Compound 110, 5-chloro-1′-[2-(4-methanesulfonyl-3-methylphenoxy)ethyl]-1,2-dihydrospiro[indole-3,4′-piperidin]-2-one]
[1]; [2]
  EC50: 41.3 nM
APOL1 G2
  AC50: 772 nM

## CN1CCc2cc(OCCN3CCC4(CC3)C(=O)Nc3ccc(Cl)cc34)ccc2S1(=O)=O [Compound 153, 6-(2-{5-chloro-2-oxo-1,2-dihydrospiro[indole-3,4′-piperidin]-1′-yl}ethoxy)-2-methyl-3,4-dihydro-2H-1λ^6,2-benzothiazine-1,1-dione]
[1]; [2]
  EC50: 22.1 nM
APOL1 G2
  AC50: 826 nM

## Cn1c(=O)oc2cc(OCCN3CCC4(CC3)C(=O)Nc3ccc(Cl)cc34)ccc21 [Compound 131, 5-chloro-1′-{2-[(3-methyl-2-oxo-2,3-dihydro-1,3-benzoxazol-6-yl)oxy]ethyl}-1,2-dihydrospiro[indole-3,4′-piperidin]-2-one]
[1]; [2]
  EC50: 68 nM
APOL1 G2
  AC50: 464 nM

## CC(C)N1C(=O)Cc2cc(OCCN3CCC4(CC3)C(=O)Nc3ccc(C#N)cc34)ccc21 [Compound 144, 2-oxo-1′-(2-{[2-oxo-1-(propan-2-yl)-2,3-dihydro-1H-indol-5-yl]oxy}ethyl)-1,2-dihydrospiro[indole-3,4′-piperidine]-5-carbonitrile]
[1]; [2]
  EC50: 81 nM
APOL1 G2
  AC50: 708 nM

## N#Cc1ccc2c(c1)C1(CCN(CCOc3ccc4c(c3)CCNS4(=O)=O)CC1)C(=O)N2 [Compound 168, 1′-{2-[(1,1-dioxo-3,4-dihydro-2H-1λ^6,2-benzothiazin-6-yl)oxy]ethyl}-2-oxo-1,2-dihydrospiro[indole-3,4′-piperidine]-5-carbonitrile]
[1]; [2]
  EC50: 343 nM
APOL1 G2
  AC50: 1390 nM

## CS(=O)(=O)C1(c2ccc(OCCN3CCC4(CC3)C(=O)Nc3ccc(Cl)cc34)cc2)CC2(COC2)C1 [Compound 182, 5-chloro-1′-[2-(4-{6-methanesulfonyl-2-oxaspiro[3.3]heptan-6-yl}phenoxy)ethyl]-1,2-dihydrospiro[indole-3,4′-piperidin]-2-one]
[1]; [2]
  EC50: 99.6 nM
APOL1 G2
  AC50: 574 nM

## CN1c2ccc(OCCN3CCC4(CC3)C(=O)Nc3ccc(C#N)cc34)cc2CCS1(=O)=O [Compound 104, 1′-{2-[(1-methyl-2,2-dioxo-3,4-dihydro-1H-2λ^6,1-benzothiazin-6-yl)oxy]ethyl}-2-oxo-1,2-dihydrospiro[indole-3,4′-piperidine]-5-carbonitrile]
[1]; [2]
  EC50: 139 nM
APOL1 G2
  AC50: 408 nM

## C[C@@H](COc1ccc(S(C)(=O)=O)cc1)N1CCC2(CC1)C(=O)Nc1ccccc12 (single isomer, unassigned) [Compound 12]
[1]; [2]
  EC50: 307 nM
APOL1 G2
  AC50: < 457 nM

## CCS(=O)(=O)C1(c2ccc(OCCN3CCC4(CC3)C(=O)Nc3ccc(C#N)cc34)cc2)COC1 [Compound 174, 1′-(2-{4-[3-(ethanesulfonyl)oxetan-3-yl]phenoxy}ethyl)-2-oxo-1,2-dihydrospiro[indole-3,4′-piperidine]-5-carbonitrile]
[1]; [2]
  EC50: 104 nM
APOL1 G2
  AC50: 484 nM

## O=C1CCc2cc(OCCN3CCC4(CC3)C(=O)Nc3ccc(Cl)cc34)ccc2N1CC(F)F [Compound 106, 5-chloro-1′-(2-{[1-(2,2-difluoroethyl)-2-oxo-1,2,3,4-tetrahydroquinolin-6-yl]oxy}ethyl)-1,2-dihydrospiro[indole-3,4′-piperidin]-2-one]
[1]; [2]
  EC50: 33.5 nM
APOL1 G2
  AC50: 756 nM

## N#Cc1ccc2c(c1)C1(CCN(CCOc3ccc4c(c3)CCN3C(=O)NCC43)CC1)C(=O)N2 (single isomer, unassigned) [Compound 120, (R) or (S)-2-oxo-1′-[2-({3-oxo-1H,2H,3H,5H,6H,10bH-imidazo[4,3-a]isoquinolin-8-yl}oxy)ethyl]-1,2-dihydrospiro[indole-3,4′-piperidine]-5-carbonitrile]
[1]; HEK293 overexpressing APOL1 G2
  EC50: 324 nM
APOL1 G2
  AC50: 1190 nM

## CS(=O)(=O)c1ccc(OCCN2CCC3(CC2)C(=O)Nc2ccc(C#N)cc23)cc1C(F)(F)F [Compound 107, 1′-{2-[4-methanesulfonyl-3-(trifluoromethyl)phenoxy]ethyl}-2-oxo-1,2-dihydrospiro[indole-3,4′-piperidine]-5-carbonitrile]
[1]; [2]
  EC50: 30.8 nM
APOL1 G2
  AC50: 712 nM

## CN1Cc2cc(OCCN3CCC4(CC3)C(=O)Nc3ccc(Cl)cc34)ccc2C1=O [Compound 146, 5-chloro-1′-{2-[(2-methyl-1-oxo-2,3-dihydro-1H-isoindol-5-yl)oxy]ethyl}-1,2-dihydrospiro[indole-3,4′-piperidin]-2-one]
[1]; [2]
  EC50: 121 nM
APOL1 G2
  AC50: 279 nM

## CS(=O)(=O)C1(c2ccc(OCCN3CCC4(CC3)C(=O)Nc3ccc(Cl)cc34)cc2C(F)(F)F)COC1 [Compound 165, 5-chloro-1′-{2-[4-(3-methanesulfonyloxetan-3-yl)-3-(trifluoromethyl)phenoxy]ethyl}-1,2-dihydrospiro[indole-3,4′-piperidin]-2-one]
[1]; [2]
  EC50: 21.2 nM
APOL1 G2
  AC50: 558 nM

## CC(C)(C#N)c1ccc(OCCN2CCC3(CC2)C(=O)Nc2ccc(C#N)cc23)cc1 [Compound 157, 1′-{2-[4-(1-cyano-1-methylethyl)phenoxy]ethyl}-2-oxo-1,2-dihydrospiro[indole-3,4′-piperidine]-5-carbonitrile]
[1]; [2]
  EC50: 50.4 nM
APOL1 G2
  AC50: 933 nM

## O=C1Nc2ccc(Cl)cc2C12CCN(CCOc1ccc(S(=O)(=O)[C@H]3C[C@@H](O)C3)cc1)CC2 [Compound 17, 5-chloro-1′-[2-(4-{[(cis)-3-hydroxycyclobutyl]sulfonyl}phenoxy)ethyl]-1,2-dihydrospiro[indole-3,4′-piperidin]-2-one]
[1]; [2]
  EC50: 60 nM
APOL1 G2
  AC50: 1100 nM

## CS(=O)(=O)c1ccc(OCCN2CCC3(CC2)C(=O)Nc2ccc(C#N)cc23)cc1OC(F)F [Compound 164, 1′-{2-[3-(difluoromethoxy)-4-methanesulfonylphenoxy]ethyl}-2-oxo-1,2-dihydrospiro[indole-3,4′-piperidine]-5-carbonitrile]
[1]; [2]
  EC50: 103 nM
APOL1 G2
  AC50: 555 nM

## CN(c1c(F)cc(OCCN2CCC3(CC2)C(=O)Nc2ccc(Cl)cc23)cc1F)S(C)(=O)=O [Compound 127, N-[4-(2-{5-chloro-2-oxo-1,2-dihydrospiro[indole-3,4′-piperidin]-1′-yl}ethoxy)-2,6-difluorophenyl]-N-methylmethanesulfonamide]
[1]; [2]
  EC50: 20.8 nM
APOL1 G2
  AC50: 542 nM

## O=C1CCc2cc(OCCN3CCC4(CC3)C(=O)Nc3ccc(Cl)cc34)ccc2N1C1COC1 [Compound 99, 5-chloro-1′-(2-{[1-(oxetan-3-yl)-2-oxo-1,2,3,4-tetrahydroquinolin-6-yl]oxy}ethyl)-1,2-dihydrospiro[indole-3,4′-piperidin]-2-one]
[1]; [2]
  EC50: 86.5 nM
APOL1 G2
  AC50: 643 nM

## Cc1cc(OCCN2CCC3(CC2)C(=O)Nc2ccc(C#N)cc23)cnc1S(C)(=O)=O [Compound 140, 1′-{2-[(6-methanesulfonyl-5-methylpyridin-3-yl)oxy]ethyl}-2-oxo-1,2-dihydrospiro[indole-3,4′-piperidine]-5-carbonitrile]
[1]; [2]
  EC50: 172 nM
APOL1 G2
  AC50: 807 nM
